What was measured:
Experiment in all cases: relative viability (nuclei count vs DMSO), 5 days (fraction); higher = more cells survive
RAF265 + Alpelisib = compound: Cn1c(Nc2ccc(C(F)(F)F)cc2)nc2cc(Oc3ccnc(-c4ncc(C(F)(F)F)[nH]4)c3)ccc21 [RAF265] + Cc1nc(NC(=O)N2CCC[C@H]2C(N)=O)sc1-c1ccnc(C(C)(C)C(F)(F)F)c1 [Alpelisib] (partner 2 µM)
Outline: (§1)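 One day after seeding in 1536-well plates, lung cancer cell lines were dosed by pin tool. Dosing was either single-drug or a fixed anchor-drug dose plus five library-drug doses (not always all listed) in √10 steps. After 5 days, nuclei were stained in one fix-and-stain step and counted on 4× images, and relative viability is the nuclei count of treated wells over that of vehicle wells, given as the median of duplicate plates.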

RAF265 + Decitabine = compound: Cn1c(Nc2ccc(C(F)(F)F)cc2)nc2cc(Oc3ccnc(-c4ncc(C(F)(F)F)[nH]4)c3)ccc21 [RAF265] + Nc1ncn([C@H]2C[C@H](O)[C@@H](CO)O2)c(=O)n1 [Decitabine] (partner 2 µM)
Outline: as §1

IPA-3 + Trametinib = compound: C1=CC=C2C(=C1)C=CC(=C2SSC3=C(C=CC4=CC=CC=C43)O)O [IPA-3] + CC(=O)Nc1cccc(-n2c(=O)n(C3CC3)c(=O)c3c(Nc4ccc(I)cc4F)n(C)c(=O)c(C)c32)c1 [Trametinib] (partner 0.02 µM)
Outline: as §1

IPA-3 + Pemetrexed = compound: C1=CC=C2C(=C1)C=CC(=C2SSC3=C(C=CC4=CC=CC=C43)O)O [IPA-3] + Nc1nc2[nH]cc(CCc3ccc(C(=O)N[C@@H](CCC(=O)O)C(=O)O)cc3)c2c(=O)[nH]1 [Pemetrexed] (partner 0.2 µM)
Outline: as §1

Cell Line | relative viability (RAF265 + Alpelisib; first compound 0.01 µM) | relative viability (RAF265 + Alpelisib; first compound 0.03162 µM) | relative viability (RAF265 + Alpelisib; first compound 0.1 µM) | relative viability (RAF265 + Alpelisib; first compound 0.3162 µM) | relative viability (RAF265 + Alpelisib; first compound 1 µM) | relative viability (RAF265 + Decitabine; first compound 0.01 µM) | relative viability (RAF265 + Decitabine; first compound 0.03162 µM) | relative viability (RAF265 + Decitabine; first compound 0.1 µM) | relative viability (RAF265 + Decitabine; first compound 0.3162 µM) | relative viability (RAF265 + Decitabine; first compound 1 µM) | relative viability (IPA-3 + Trametinib; first compound 0.2 µM) | relative viability (IPA-3 + Trametinib; first compound 0.6325 µM) | relative viability (IPA-3 + Trametinib; first compound 2 µM) | relative viability (IPA-3 + Trametinib; first compound 6.325 µM) | relative viability (IPA-3 + Trametinib; first compound 20 µM) | relative viability (IPA-3 + Pemetrexed; first compound 0.2 µM) | relative viability (IPA-3 + Pemetrexed; first compound 0.6325 µM) | relative viability (IPA-3 + Pemetrexed; first compound 2 µM) | relative viability (IPA-3 + Pemetrexed; first compound 6.325 µM) | relative viability (IPA-3 + Pemetrexed; first compound 20 µM)
NCI-H2170 | 0.773 | 0.643 | 0.671 | 0.524 | 0.641 | 0.482 | 0.439 | 0.499 | 0.366 | 0.386 | 0.958 | 0.923 | 0.868 | 0.846 | 0.993 | 0.254 | 0.28 | 0.243 | 0.28 | 0.273
NCI-H2342 | – | – | – | – | – | 0.717 | 0.672 | 0.727 | 0.784 | 0.714 | 0.74 | 0.734 | 0.955 | 0.872 | 0.937 | 0.868 | 0.761 | 0.841 | 0.823 | 0.924
LCLC-97TM1 | 0.274 | 0.194 | 0.2 | 0.144 | 0.125 | 0.248 | 0.203 | 0.191 | 0.159 | 0.122 | 0.221 | 0.206 | 0.205 | 0.218 | 0.223 | 0.165 | 0.184 | 0.164 | 0.148 | 0.179
NCI-H1299 | 0.981 | 1.06 | 0.966 | 0.589 | 0.616 | – | – | – | – | – | – | – | – | – | – | – | – | – | – | –
NCI-H3122 | 0.909 | 0.868 | 0.783 | 0.559 | 0.417 | 0.408 | 0.379 | 0.429 | 0.304 | 0.29 | 0.294 | 0.227 | 0.262 | 0.255 | 0.216 | 0.189 | 0.197 | 0.192 | 0.207 | 0.211
NCI-H1395 | 1.07 | 0.993 | 1.04 | 0.835 | 0.792 | 0.753 | 0.664 | 0.66 | 0.707 | 0.549 | 1.02 | 1.03 | 1.04 | 1.05 | 1.13 | 0.925 | 0.842 | 0.822 | 0.887 | 0.912
NCI-H2009 | 1.21 | 1.11 | 1.03 | 1.05 | 0.594 | 0.43 | 0.376 | 0.377 | 0.459 | 0.335 | 0.307 | 0.266 | 0.245 | 0.279 | 0.241 | 1.16 | 0.974 | 1.03 | 0.958 | 1.09
NCI-H1651 | 0.95 | 0.919 | 1.03 | 0.734 | 0.774 | 0.675 | 0.632 | 0.424 | 0.589 | 0.54 | 0.945 | 0.798 | 0.883 | 0.904 | 0.971 | 0.602 | 0.606 | 0.621 | 0.591 | 0.679
HARA | 0.762 | 0.708 | 0.736 | 0.477 | 0.287 | 0.652 | 0.468 | 0.53 | 0.426 | 0.414 | 0.884 | 0.899 | 0.63 | 0.591 | 1.02 | 0.298 | 0.227 | 0.249 | 0.229 | 0.24
Calu-6 | 0.958 | 0.771 | 0.43 | 0.302 | 0.274 | – | – | – | – | – | – | – | – | – | – | – | – | – | – | –
NCI-H1703 | 0.213 | 0.298 | 0.251 | 0.274 | 0.206 | – | – | – | – | – | – | – | – | – | – | – | – | – | – | –
NCI-H1650 | – | – | – | – | – | 0.424 | 0.439 | 0.426 | 0.4 | 0.472 | 0.996 | 0.558 | 0.579 | 0.647 | 0.545 | 0.346 | 0.39 | 0.398 | 0.364 | 0.466
NCI-H727 | 0.662 | 0.644 | 0.594 | 0.366 | 0.308 | 0.885 | 0.854 | 0.708 | 0.805 | 0.75 | 0.373 | 0.409 | 0.402 | 0.344 | 0.417 | – | – | – | – | –
NCI-H1648 | – | – | – | – | – | 0.453 | 0.557 | 0.518 | 0.4 | 0.391 | 0.476 | 0.495 | 0.555 | 0.494 | 0.524 | 0.69 | 0.855 | 0.558 | 0.584 | 0.777
ChaGo-K-1 | – | – | – | – | – | 0.584 | 0.546 | 0.512 | 0.516 | 0.437 | 0.979 | 0.886 | 0.917 | 0.884 | 1 | 0.257 | 0.264 | 0.272 | 0.281 | 0.263
CAL-12T | 1.26 | 1.04 | 0.944 | 0.575 | 0.354 | – | – | – | – | – | 0.505 | 0.366 | 0.232 | 0.338 | 0.457 | 1.21 | 0.983 | 0.942 | 1.26 | 1.24
NCI-H2228 | 0.791 | 0.718 | 0.436 | 0.299 | 0.29 | – | – | – | – | – | 0.768 | 0.405 | 0.365 | 0.634 | 0.379 | 0.369 | 0.334 | 0.336 | 0.354 | 0.341
NCI-H522 | – | – | – | – | – | 0.651 | 0.585 | 0.604 | 0.729 | 0.617 | 0.828 | 0.792 | 0.822 | 0.875 | 0.711 | 1.02 | 0.772 | 0.855 | 1.08 | 1.13
ABC-1 | 1.13 | 1.01 | 1.01 | 1.05 | 0.619 | 1.16 | 1.04 | 1.07 | 1.17 | 0.979 | – | – | – | – | – | – | – | – | – | –
SW 900 | – | – | – | – | – | 0.51 | 0.429 | 0.505 | 0.412 | 0.407 | 0.939 | 0.497 | 0.752 | 0.675 | 0.938 | 0.544 | 0.456 | 0.472 | 0.441 | 0.527
IA-LM | 0.774 | – | 0.587 | 0.752 | 0.44 | – | – | – | – | – | – | – | – | – | – | – | – | – | – | –
A549 | 0.761 | 0.612 | 0.541 | 0.244 | 0.178 | 0.226 | 0.232 | 0.259 | 0.318 | 0.155 | – | – | – | – | – | – | – | – | – | –

From the supplement of paper PMC10307832
